Among the data in ChEMBL document CHEMBL3763119, “Metal-based biologically active azoles and β-lactams derived from sulfa drugs” (Bioorg Med Chem, 2016) are zone of inhibition and solubility values, retold here.

In data set [1] the test system is Escherichia coli. Description: Antibacterial activity against Escherichia coli at 1 ug/ml by disc diffusion method. It is filed as functional. The following applies: read-out: DIZ.
The test system of data set [2] is Pseudomonas aeruginosa. Description: Antibacterial activity against Pseudomonas aeruginosa at 1 ug/ml by disc diffusion method. It is filed as functional. The following applies: read-out: DIZ. (Agar diffusion results depend on both activity and mobility in agar.)
Data set [3] deals with Proteus sp. Briefly: Antibacterial activity against Proteus sp. at 1 ug/ml by disc diffusion method. It counts as functional. The following applies: Proteus sp. (in: enterobacteria); read-out: DIZ.
The test system of data set [4] is Staphylococcus aureus. Description: Antibacterial activity against Staphylococcus aureus at 1 ug/ml by disc diffusion method. It counts as functional. The conditions noted are these: read-out: DIZ.
Data set [5] can be described thus: Solubility of the compound in ethanol. It counts as physicochemical.
Data set [6] can be described thus: Solubility of the compound in dioxane. It counts as physicochemical.
Data set [7] in a line: Solubility of the compound in THF. It counts as physicochemical.
The subject of data set [8] is Escherichia coli. Description: Antibacterial activity against Escherichia coli at 10 ug/ml by disc diffusion method. It counts as functional. The following applies: read-out: DIZ.
The test system of data set [9] is Pseudomonas aeruginosa. Description: Antibacterial activity against Pseudomonas aeruginosa at 10 ug/ml by disc diffusion method. It counts as functional. The following applies: read-out: DIZ.
Data set [10] deals with Proteus sp. Description: Antibacterial activity against Proteus sp. at 10 ug/ml by disc diffusion method. It counts as functional. The conditions noted are these: Proteus sp. (in: enterobacteria); read-out: DIZ.
The subject of data set [11] is Staphylococcus aureus. Description: Antibacterial activity against Staphylococcus aureus at 10 ug/ml by disc diffusion method. It counts as functional. The conditions noted are these: read-out: DIZ.
For data set [12], the system named is Escherichia coli. Description: Antibacterial activity against Escherichia coli at 50 ug/ml by disc diffusion method. The conditions noted are these: read-out: DIZ. It counts as functional.
For data set [13], the system named is Pseudomonas aeruginosa. Description: Antibacterial activity against Pseudomonas aeruginosa at 50 ug/ml by disc diffusion method. It is filed as functional. The conditions noted are these: read-out: DIZ.
Data set [14] concerns Proteus sp. Description: Antibacterial activity against Proteus sp. at 50 ug/ml by disc diffusion method. It counts as functional. The following applies: Proteus sp. (in: enterobacteria); read-out: DIZ.
Data set [15] concerns Staphylococcus aureus. Description: Antibacterial activity against Staphylococcus aureus at 50 ug/ml by disc diffusion method. It is filed as functional. The conditions noted are these: read-out: DIZ.
Data set [16] has as its system Escherichia coli. Description: Antibacterial activity against Escherichia coli at 100 ug/ml by disc diffusion method. It counts as functional. The conditions noted are these: read-out: DIZ.
Data set [17] relates to Pseudomonas aeruginosa. Briefly: Antibacterial activity against Pseudomonas aeruginosa at 100 ug/ml by disc diffusion method. It is filed as functional. The conditions noted are these: read-out: DIZ.
Data set [18] has as its system Proteus sp. Briefly: Antibacterial activity against Proteus sp. at 100 ug/ml by disc diffusion method. The following applies: Proteus sp. (in: enterobacteria); read-out: DIZ. It is filed as functional.
Data set [19] deals with Staphylococcus aureus. Description: Antibacterial activity against Staphylococcus aureus at 100 ug/ml by disc diffusion method. It is filed as functional. The following applies: read-out: DIZ.
Data set [20] has as its system Proteus sp. Briefly: Antibacterial activity against Proteus sp. at 30 ug/ml by disc diffusion method. It counts as functional. The following applies: Proteus sp. (in: enterobacteria); read-out: DIZ.
Data set [21] relates to Escherichia coli. Description: Antibacterial activity against Escherichia coli at 5 ug/ml by disc diffusion method. The following applies: read-out: DIZ.
In data set [22] the test system is Pseudomonas aeruginosa. Description: Antibacterial activity against Pseudomonas aeruginosa at 5 ug/ml by disc diffusion method. The following applies: read-out: DIZ.
For data set [23], the system named is Staphylococcus aureus. Briefly: Antibacterial activity against Staphylococcus aureus at 5 ug/ml by disc diffusion method. The conditions noted are these: read-out: DIZ.
Data set [24] deals with Escherichia coli. Description: Antibacterial activity against Escherichia coli at 15 ug/ml by disc diffusion method. The following applies: read-out: DIZ. It counts as functional.
In data set [25] the test system is Staphylococcus aureus. Description: Antibacterial activity against Staphylococcus aureus at 15 ug/ml by disc diffusion method. It is filed as functional. The conditions noted are these: read-out: DIZ.
Data set [26] deals with Escherichia coli. Briefly: Antibacterial activity against Escherichia coli at 30 ug/ml by disc diffusion method. It is filed as functional. The following applies: read-out: DIZ.
Data set [27] relates to Pseudomonas aeruginosa. Description: Antibacterial activity against Pseudomonas aeruginosa at 30 ug/ml by disc diffusion method. It counts as functional. The following applies: read-out: DIZ.
Data set [28] relates to Staphylococcus aureus. Briefly: Antibacterial activity against Staphylococcus aureus at 30 ug/ml by disc diffusion method. The conditions noted are these: read-out: DIZ. It counts as functional.

As to `COc1cccc(C2C(Cl)C(=O)N2c2ccc(S(=O)(=O)Nc3cc(C)on3)cc2)c1O` (configuration not stated), the zone of inhibition at 1 µg/mL in data set [1] amounted to 7 mm; in data set [2], 6 mm; in data set [3], 6 mm; in [4] it was 7 mm. Also, the solubility result in data set [5], in [6] and in data set [7] was “soluble” throughout. Besides, the zone of inhibition at 10 µg/mL was found to be 9 mm in [8], 9 mm in [9], 10 mm in data set [10] and 9 mm in data set [11]. Moreover, the zone of inhibition at 50 µg/mL was found to be 13 mm in data set [12], 11 mm in data set [13], 12 mm in data set [14] and 11 mm in [15]. In addition, the zone of inhibition at 100 µg/mL was 14 mm in data set [16], 13 mm in data set [17], 12 mm in [18] and 16 mm in data set [19].
For the compound `COc1cccc(/C=N/c2ccc(S(=O)(=O)Nc3cc(C)on3)cc2)c1O`, the zone of inhibition at 1 µg/mL in data set [1], in data set [2], in data set [3] and in data set [4] was 6 mm each time. The solubility entry in data set [5], in data set [6] and in data set [7] was “soluble” each time. For the same compound, the zone of inhibition at 10 µg/mL in [8] came out at 8 mm; in [9], 10 mm; in data set [10] it was 11 mm; in data set [11], 8 mm. The zone of inhibition at 50 µg/mL in data set [12] came to 11 mm; in data set [13], 11 mm; in [14], 14 mm; in [15], 10 mm. The zone of inhibition at 100 µg/mL in data set [16] turned out to be 14 mm; in data set [17], 15 mm; in data set [18], 15 mm; in data set [19] it was 12 mm.
`COc1cccc(/C=N/c2ccc(S(=O)(=O)Nc3nccs3)cc2)c1O`: the zone of inhibition at 1 µg/mL in data set [1] and in data set [4] was 6 mm throughout. For the same compound, the solubility entry in data set [5], in data set [6] and in data set [7] was “soluble” in each case. Further, the zone of inhibition at 10 µg/mL came to 9 mm in [8], 8 mm in [9], 7 mm in data set [10] and 9 mm in data set [11]. Further, the zone of inhibition at 50 µg/mL in data set [12] was 12 mm; in data set [13] it was 10 mm; in [14], 8 mm; in data set [15], 12 mm. The zone of inhibition at 100 µg/mL in data set [16] was determined as 15 mm; in data set [17] it was 13 mm; in data set [18], 9 mm; in data set [19], 14 mm.
As to `COc1cccc(C2C(Cl)C(=O)N2c2ccc(S(=O)(=O)Nc3nccs3)cc2)c1O` (configuration not stated), the zone of inhibition at 1 µg/mL in data set [1] and in data set [4] was 6 mm in each case. Also, the solubility entry in [5], in [6] and in [7] was “soluble” throughout. Moreover, the zone of inhibition at 10 µg/mL in [8] was found to be 8 mm; in data set [9] it was 6 mm; in data set [10] it was 7 mm; in data set [11], 8 mm. Moreover, the zone of inhibition at 50 µg/mL in data set [12] is 12 mm; in data set [13] it was 9 mm; in [14] it was 8 mm; in data set [15] it was 12 mm. The zone of inhibition at 100 µg/mL was found to be 13 mm in data set [16], 11 mm in data set [17], 9 mm in data set [18] and 16 mm in data set [19].
As to `C[C@H]1[C@H](NC(=O)/C(=N\OC(C)(C)C(=O)O)c2csc(N)n2)C(=O)N1S(=O)(=O)O` [AZTREONAM], the zone of inhibition at 30 µg/mL in data set [20] was 24 mm.
In the case of `O=C(O)c1cn(C2CC2)c2cc(N3CCNCC3)c(F)cc2c1=O` [CIPROFLOXACIN], the zone of inhibition at 5 µg/mL in [21] stood at 28 mm; in data set [22] it was 17 mm; in data set [23] it was 20 mm.
Consider `CC[C@H]1OC(=O)[C@H](C)[C@@H](O[C@H]2C[C@@](C)(OC)[C@@H](O)[C@H](C)O2)[C@H](C)[C@@H](O[C@@H]2O[C@H](C)C[C@H](N(C)C)[C@H]2O)[C@](C)(OC)C[C@@H](C)C(=O)[C@H](C)[C@@H](O)[C@]1(C)O` [CLARITHROMYCIN], for which the zone of inhibition at 15 µg/mL came out at 16 mm in data set [24] and 23 mm in [25].
As to `CO[C@@H]1[C@@H](OC(N)=O)[C@@H](O)[C@H](Oc2ccc3c(O)c(NC(=O)c4ccc(O)c(CC=C(C)C)c4)c(=O)oc3c2C)OC1(C)C` [NOVOBIOCIN], the zone of inhibition at 30 µg/mL in data set [20] worked out at 20 mm; in data set [26] it was 7 mm; in data set [27], 14 mm; in data set [28] it was 24 mm.
On to `Cc1cc(NS(=O)(=O)c2ccc(N)cc2)no1` [SULFAMETHOXAZOLE], for which the zone of inhibition at 10 µg/mL in data set [8] is 8 mm; in data set [9] it was 7 mm; in data set [10], 7 mm; in data set [11], 6 mm. The zone of inhibition at 50 µg/mL in data set [12] worked out at 10 mm; in data set [13] it was 8 mm; in [14], 8 mm; in data set [15], 8 mm. In addition, the zone of inhibition at 100 µg/mL in [16] stood at 12 mm; in data set [17] it was 10 mm; in [18] it was 9 mm; in data set [19], 9 mm.
For the compound `Nc1ccc(S(=O)(=O)Nc2nccs2)cc1` [SULFATHIAZOLE], the zone of inhibition at 1 µg/mL in data set [4] came to 6 mm. In addition, the zone of inhibition at 10 µg/mL in [8] is 7 mm; in data set [9], 7 mm; in [10], 8 mm; in data set [11], 10 mm. For the same compound, the zone of inhibition at 50 µg/mL in [12] is 10 mm; in data set [13], 8 mm; in data set [14], 10 mm; in data set [15] it was 13 mm. Besides, the zone of inhibition at 100 µg/mL in [16] is 11 mm; in [17], 9 mm; in [18] it was 11 mm; in [19], 15 mm.
